Assay results from patent US9260756B2, “Esophageal microRNA expression profiles in eosinophilic esophagitis” (CHILDREN'S HOSPITAL MEDICAL CENTER, priority 2012, dated 2016).

How the values were obtained:
miR-375 = assay: qRT-PCR of miR-375 in esophageal biopsies of EE patients; type: in vivo, human; details: EE patients that responded to therapy, qPCR normalized to U6
Text: Patients were selected without regard to age, race, or sex. Normal patients presented to the clinic with symptoms consistent with gastroesophageal reflux disease or EE, but the endoscopic and histologic findings for these patients were normal. […] The active chronic esophagitis patients had eosinophil counts of 1-15 per 400×hpf in the esophageal biopsies. Patients with systemic or swallowed topical glucocorticoid use were excluded from the selection of active EE or active chronic esophagitis patients.
Levels of miRNA expression were measured quantitatively by using the TaqMan MicroRNA Assays (Applied Biosystems), following the manufacturer's protocol. The expression levels were normalized to the U6 endogenous control. Relative expression was calculated as previously described (Lu, T. et al. J. Immunol. 182:4994-5002 (2009)).

IGF1R = biological target: T1, IGF1R (Mus musculus, UniProt Q60751); assay: IGF1R expression by western blot after picropodophyllin treatment; type: cell-based; details: day 10, after 2-day treatment with 2 μM picropodophyllin, both miR-223+/+ and miR-223-/- cultures
T1 construct: endogenous in cells; host or cells: bone marrow-derived eosinophil (progenitor) cultures from miR-223+/+ and miR-223-/- mice
T1 sequence (Q60751 31-1373): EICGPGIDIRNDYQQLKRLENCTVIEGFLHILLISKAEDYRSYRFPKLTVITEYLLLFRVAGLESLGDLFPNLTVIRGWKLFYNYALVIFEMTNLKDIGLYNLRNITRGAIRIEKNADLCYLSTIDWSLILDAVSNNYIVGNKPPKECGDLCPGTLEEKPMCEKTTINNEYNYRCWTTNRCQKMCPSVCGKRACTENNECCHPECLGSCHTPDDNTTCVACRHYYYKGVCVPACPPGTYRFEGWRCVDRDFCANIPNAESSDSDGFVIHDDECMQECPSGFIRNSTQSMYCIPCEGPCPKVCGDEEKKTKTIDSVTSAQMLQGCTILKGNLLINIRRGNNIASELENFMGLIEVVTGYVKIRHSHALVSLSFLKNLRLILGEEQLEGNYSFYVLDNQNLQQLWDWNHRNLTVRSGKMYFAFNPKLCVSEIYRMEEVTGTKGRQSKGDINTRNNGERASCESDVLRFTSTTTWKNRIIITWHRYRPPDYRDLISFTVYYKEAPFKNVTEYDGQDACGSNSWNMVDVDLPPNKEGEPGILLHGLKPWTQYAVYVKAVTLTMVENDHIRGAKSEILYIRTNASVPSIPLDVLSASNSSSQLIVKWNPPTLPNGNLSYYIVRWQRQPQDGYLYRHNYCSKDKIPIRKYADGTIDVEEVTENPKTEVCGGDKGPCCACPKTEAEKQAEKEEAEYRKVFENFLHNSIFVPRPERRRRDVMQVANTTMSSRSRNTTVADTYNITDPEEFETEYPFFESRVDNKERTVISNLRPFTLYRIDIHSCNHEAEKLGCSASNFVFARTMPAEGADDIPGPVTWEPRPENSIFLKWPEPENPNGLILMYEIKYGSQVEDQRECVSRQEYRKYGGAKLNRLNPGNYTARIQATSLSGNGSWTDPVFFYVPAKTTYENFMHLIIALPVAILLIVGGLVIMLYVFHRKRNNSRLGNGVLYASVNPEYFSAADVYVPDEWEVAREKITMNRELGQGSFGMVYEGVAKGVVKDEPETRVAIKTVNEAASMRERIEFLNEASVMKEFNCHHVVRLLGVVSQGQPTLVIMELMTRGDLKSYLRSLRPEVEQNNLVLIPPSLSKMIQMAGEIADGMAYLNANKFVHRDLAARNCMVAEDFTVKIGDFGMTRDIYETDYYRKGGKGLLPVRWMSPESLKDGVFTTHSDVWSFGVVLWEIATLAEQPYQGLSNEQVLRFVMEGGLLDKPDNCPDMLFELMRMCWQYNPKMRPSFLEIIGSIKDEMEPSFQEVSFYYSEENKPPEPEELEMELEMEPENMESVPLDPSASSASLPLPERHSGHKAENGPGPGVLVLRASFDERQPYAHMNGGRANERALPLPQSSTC
Protocol: Cells were rapidly washed in phosphate buffered saline and lysed in M-PER mammalian protein extraction reagent (Pierce, Rockford, Ill.), according to the manufacturer's protocol. Protease inhibitor cocktails (Pierce) and phosphatase inhibitor cocktails (Pierce) were added to the M-PER protein extraction reagent immediately before lysis. Western blot analysis was performed, as described in a previous protocol (Lim, E. et al. J. Biol. Chem. 286:13193-204 (2011)). The assay was conducted using an anti-IGF1R antibody (Cell Signaling Technology, Danvers, Mass.) and an anti-GAPDH antibody (Abcam, Cambridge, UK).
(§1) Bone marrow-derived eosinophils were re-suspended at a concentration of 1×10^6 cells/ml and treated with DMSO or 2 μM of picropodophyllin at day 8 (Yin, S. et al. Neuro. Oncol. 12:19-27 (2010)). Cell growth was determined by cell counting using a hemacytometer on day 10 and day 12. Cell lysates were collected on day 10, and levels of IGF1R expression were determined by western blot.

[1] = system: bone marrow-derived eosinophils; assay: Cell growth after picropodophyllin treatment, cell counting using a hemacytometer; type: cell-based, mouse; details: for growth of miR-223+/+ and miR-223-/- eosinophil cultures: 2 μM picropodophyllin from day 8, counted day 10 and day 12, vs DMSO
Protocol: Bone marrow cells were collected from femurs and tibia of the mice, and the stem/progenitor cell-enriched low-density fraction was isolated by gradient centrifugation using the Histopaque 1083 (Sigma), according to the manufacturer's protocol. The low density fraction of bone marrow cells were cultured in IMDM with 10% FBS, 100 U/ml penicillin, and 100 μg/ml streptomycin supplemented with 100 ng/mL stem cell factor and 100 ng/mL FLT-3 ligand (Peprotech) from day 0 to day 4.
The stem cell factor and FLT-3 ligand were replaced with 10 ng/mL IL-5 on day 4, and the cells were cultured for an additional 10-12 days in the presence of IL-5 (Dyer, K. et al. J. Immunol. 181:4004-9 (2008)). The culture media was changed every other day, and cells were counted and concentration was adjusted to 1×10^6/mL during each media change. Eosinophil maturity was assessed by FACS staining for CCR3 and Siglec-F and/or Diff-Quik (Fisher Scientific) staining of cytospin preparations. Eosinophil progenitor growth was assessed by counting the cells every 2 days using a hemacytometer.
as §1

[2] = system: human esophageal epithelial cells; assay: miRNA expression in IL-13-stimulated human esophageal epithelial cells (microarray, qPCR); type: cell-based; details: after 24 and 48 hours of IL-13 stimulation, normalized to U6
Protocol: (§2) Human esophageal epithelial cells derived from human patient biopsies were cultured, as described in a previous protocol (Blanchard, C. et al. J. Allergy Clin. Immunol. 120:1292-300 (2007)). The human bronchial epithelial cell line HBEC was cultured as previously described (Ramirez, R. et al. Cancer Res. 64:9027-34 (2004)). The normal human bronchial epithelial cells (Lonza, Basel, Switzerland) were cultured, as described in a previous protocol (Kariyawasam, H. et al. J. Allergy Clin. Immunol. 124:454-462 (2009)). The U937 monocytes and Jurkat T cells were cultured in RPMI 1640 medium (Fisher Scientific) supplemented with 10% FBS, 100 U/mL penicillin, and 100 μg/ml streptomycin. […]
(§3) Human esophageal epithelial cells and bronchial epithelial cells were stimulated with media or 100 ng/mL IL-13 for 24 hours. […] RNA quality was assessed using the 2100 bioanalyzer (Agilent Technologies), and only samples with RNA integrity number >8 were used. […]
(§4) The miRNAs differentially regulated between unstimulated and IL-13 stimulated samples were identified by normalizing the expression data to the average of two endogenous control probes, namely RNU44 and RNU48, then filtered on cycle threshold values <35 and at least a 2-fold change between unstimulated and IL-13-stimulated samples. Statistical significance was determined at p<0.05 with Benjamini Hochberg false discovery rate correction. […]

[3] = system: human bronchial epithelial cells; assay: miRNA expression in IL-13-stimulated human bronchial epithelial cells (microarray, qPCR); type: cell-based; details: normal human bronchial epithelial cells, after 24 and 48 hours of IL-13 stimulation, normalized to U6
Protocol: as §2, §3, §4

Which “miR-375 levels in esophageal tissue” value (miR-375) does the source give for `CCC(=O)O[C@]1(C(=O)SCF)[C@H](C)C[C@H]2[C@@H]3C[C@H](F)C4=CC(=O)C=C[C@]4(C)[C@@]3(F)[C@@H](O)C[C@@]21C` [fluticasone propionate] here?
Its value is “comparable to normal healthy controls”.

Which “IGF1 receptor expression level” value (IGF1R) does the source give for `COc1cc([C@@H]2c3cc4c(cc3[C@H](O)[C@H]3COC(=O)[C@@H]23)OCO4)cc(OC)c1OC` [picropodophyllin] here?
The value was “nearly complete down-regulation”.

What about the “growth of miR-223+/+ and miR-223-/- eosinophil cultures” value [1] of the same compound?
The value was “inhibited”.

And the “growth of miR-223+/+ and miR-223-/- eosinophil cultures” value ([1]; listed as pricopodphyllin)?
Its value is “inhibits”.

And the “increased proliferation seen in miR-223-/- cultures” value ([1]; 2 μM picropodophyllin, miR-223-/- vs miR-223+/+ cultures)?
Its value is “completely reversing”.

With “IL-13: cytokine used at 100 ng/mL to stimulate human esophageal and bronchial epithelial cells” as the compound, how does the miR-375 expression [2] read?
The miR-375 expression was “down-regulated”.

And the miR-375 expression [3]?
Its miR-375 expression is “down-regulated”.
